Results as given in PubChem BioAssay (NCI).
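Test compounds were applied to cells in 96-well plates for 48 hours at 5 doses. At the TGI there is no net growth.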

Columns and labels:
Assay in all cases: NCI-60 cell line screen, 48 h
[1] = system: HOP-92 NSCLC
[2] = system: OVCAR-8 ovarian
[3] = system: SF-268 CNS
[4] = system: NCI-H226 lung
[5] = system: NCI/ADR-RES ovarian
[6] = system: ACHN renal
[7] = system: COLO 205 colon
[8] = system: RPMI-8226 leukemia
[9] = system: SNB-75 CNS
[10] = system: MDA-MB-231 breast

SMILES | TGI [1] [µM] | TGI [2] [µM] | TGI [3] [µM] | TGI [4] [µM] | TGI [5] [µM] | TGI [6] [µM] | TGI [7] [µM] | TGI [8] [µM] | TGI [9] [µM] | TGI [10] [µM]
CCOC(=O)c1c(-c2ccc(O)c(OC)c2)c(C#N)c(=S)n(C2OC(CO)C(O)C(O)C2O)c1-c1ccccc1 (stereo not drawn) | > 100 | > 100 | > 100 | > 100 | > 100 | > 100 | > 100 | > 100 |  | 
O=c1[nH][nH]c(=O)n1CCCCCCn1c(=O)[nH][nH]c1=O |  | > 100 | > 100 | > 100 | > 100 |  | > 100 | > 100 | > 100 | > 100
CCN1CN(c2ccccc2)C2(CCN(CC3COc4ccccc4O3)CC2)C1=O (stereo not drawn) |  | > 100 | > 100 | 94.1 | > 100 | 71.2 | 31.5 | 57.9 | 94 | 4.78
Cc1ccc(/C=N\NC2c3cc(Cl)ccc3Nc3nc(=O)[nH]c(C)c32)cc1 (stereo not drawn) | > 100 | > 100 | > 100 | > 100 |  | > 100 | > 100 | > 100 | > 100 | 
NS(=O)(=O)c1ccc(NC(=S)/N=C/C2=C(O)c3ccccc3C2=O)cc1 | > 100 |  | > 100 |  |  | > 100 | > 100 | > 100 | 76.4 | > 100
Clc1ccc(-c2nnc3sc4nc5ccccc5c-4nn23)c(Cl)c1 | 68.8 | > 100 | > 100 | > 100 | > 100 | > 100 | > 100 |  | > 100 | > 100
O=C(O)[C@H]1CCCN1CP(=O)(O)CN1CCC[C@@H]1C(=O)O | > 100 | > 100 | > 100 |  | > 100 | > 100 | > 100 |  | > 100 | > 100
O=C(O)C(Cl)(Cl)Cl | > 100 | > 100 | > 100 | > 100 |  | > 100 | > 100 | > 100 | > 100 | 
Cc1c(/C=N\NC(=S)NCCNC(=S)N/N=C\c2c(C)n(C)n(-c3ccccc3)c2=O)c(=O)n(-c2ccccc2)n1C | > 100 |  | > 100 | > 100 | > 100 | > 100 | > 100 |  | > 100 | > 100
OC[C@H]1O[C@@H]2O[C@@](COCc3ccccc3)([C@H](OCc3ccccc3)[C@H]2O)[C@@H]1OCc1ccccc1 | 28.1 | 29.1 | 32.3 |  | 36.1 | 31.1 | 35 | 32.4 | 29.7 | 29.3
O=C(O)COc1ccccc1C(=O)Nc1ccccc1 | > 100 | > 100 | > 100 | > 100 |  | > 100 | > 100 | > 100 | > 100 | 
O=C1CC2(CCC(O)(c3ccc4ccccc4c3)C(C(=O)c3ccc4ccccc4c3)C2)C(=O)c2ccccc2N1 (stereo not drawn) | > 100 | > 100 | > 100 | > 100 | > 100 |  | > 100 |  | > 100 | > 100
CCNC(=S)NNC(=O)C12CC3CC(CC(C3)C1)C2 |  | > 100 | > 100 | > 100 | > 100 | > 100 | > 100 | > 100 | > 100 | > 100
CC(O)CNC(=O)C(C)Oc1ccc(OCC2CCCCC2)cc1 (stereo not drawn) |  | > 100 | > 100 | > 100 |  | > 100 |  |  | > 100 | 
CC(C)SC(=S)Sc1c(Cl)c(Cl)nc(Cl)c1Cl | 21.4 | 10.5 | 32.9 | 50.3 | 61.2 | 18.6 | 24.7 | 4.29 |  | 26.7
O=[N+]([O-])C(=C(Nc1cccc2cccnc12)Nc1cccc2cccnc12)C(Cl)=C(Cl)Cl |  | > 100 | > 100 | > 100 | > 94 | > 51.1 | > 100 | > 100 | > 100 | 29.6
Cc1cccc(C)c1NC(=O)C(Cc1c[nH]c2ccccc12)NC(=O)OCc1ccccc1 (stereo not drawn) | 62.4 | 89.2 | > 100 |  | 40.3 | 53.2 | 27.6 | 55.3 | 48.2 | 48.2
C=C(C(=O)OCC)C(=O)OCC | > 100 | > 100 | > 100 | > 100 |  | > 100 | > 100 | > 100 | > 100 | > 100
CCOS(C)(=O)=O | 30.7 | > 100 | > 100 | > 100 | > 100 | > 100 | > 100 |  |  | > 100
CC1(C)OC[C@@H](O)[C@H](C#N)CO1 |  | > 100 | > 100 | > 100 |  | > 100 | > 100 | > 100 | > 100 | > 100
S=C1NC2=C(CSC/C2=C\c2cccc(Br)c2)C(c2cccc(Br)c2)N1 (stereo not drawn) |  | > 100 | > 100 | > 100 | > 100 | > 100 | > 100 | > 100 | > 100 | > 100
Nc1ccc(N=Nc2c(S(=O)(=O)O)cc3ccccc3c2S(=O)(=O)O)cc1 | > 100 | > 100 | > 100 | > 100 | > 100 | > 100 |  |  | > 100 | > 100
O=c1oc2cc(O)ccc2c(O)c1C(c1ccccc1)c1c(O)c2ccc(O)cc2oc1=O | > 100 | > 100 | > 100 | > 100 | > 100 |  | > 100 |  | > 100 | > 100
O=C(NCP(=O)(Oc1ccccc1)Oc1ccccc1)OCc1ccccc1 | > 100 | > 100 | > 100 | > 100 | > 100 | > 100 | > 100 | > 100 | > 100 | 
